We go through five molecules from article doi:10.1101/2024.03.29.587371v1 (biorxiv, 2024).

Residues, ends and D or L forms follow the SMILES beside them.

What all share (type): biochemical
Assay [1] deals with T1, AtFBA4 (SUMO-AtFBA4) (Arabidopsis thaliana, UniProt F4KGQ0).
T1 sequence (F4KGQ0 1-393): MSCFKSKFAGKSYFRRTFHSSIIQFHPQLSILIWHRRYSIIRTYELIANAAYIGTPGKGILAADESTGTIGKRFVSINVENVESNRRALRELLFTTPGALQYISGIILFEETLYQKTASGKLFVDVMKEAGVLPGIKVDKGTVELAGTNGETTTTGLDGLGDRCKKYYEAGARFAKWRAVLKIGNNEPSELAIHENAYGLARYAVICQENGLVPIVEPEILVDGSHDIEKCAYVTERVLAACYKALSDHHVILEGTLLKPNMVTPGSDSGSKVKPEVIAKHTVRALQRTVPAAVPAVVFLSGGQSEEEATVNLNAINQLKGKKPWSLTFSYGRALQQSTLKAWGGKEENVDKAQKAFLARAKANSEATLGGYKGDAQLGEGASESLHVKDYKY
As to the kind of experiment: coupled NADH assay, activity relative to control. To be noted: read-out: % residual activity at 5.0 mM.

Assay [2] deals with T2, AtFBA5 (SUMO-AtFBA5) (Arabidopsis thaliana, UniProt O65581).
T2 sequence (O65581 1-358): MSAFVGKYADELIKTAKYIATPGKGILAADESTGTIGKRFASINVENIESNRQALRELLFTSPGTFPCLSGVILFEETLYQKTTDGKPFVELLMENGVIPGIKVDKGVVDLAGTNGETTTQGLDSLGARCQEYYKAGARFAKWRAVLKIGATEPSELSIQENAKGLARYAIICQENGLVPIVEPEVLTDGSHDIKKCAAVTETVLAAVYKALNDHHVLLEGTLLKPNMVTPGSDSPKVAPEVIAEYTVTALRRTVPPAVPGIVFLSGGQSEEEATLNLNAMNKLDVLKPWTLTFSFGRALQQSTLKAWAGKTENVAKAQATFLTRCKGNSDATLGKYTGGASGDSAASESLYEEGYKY
Put plainly: coupled NADH assay, activity relative to control.

In assay [3] the target is T2, AtFBA5 (SUMO-AtFBA5). Put plainly: coupled NADH assay at […] nm, FBP saturation curves with inhibitor.
In assay [4] the target is T1, AtFBA4 (SUMO-AtFBA4). Described as above.

For the molecule `O=C(O)C[C@H](O)C(=O)O` [Malate], the remaining activity at 5000 µM in assay [1] is 68 ± 12%.

On to `N[C@@H](Cc1ccc(O)cc1)C(=O)N[C@@H](CC(=O)O)C(=O)O` [Tyr-Asp] (H-Tyr-Asp-OH), for which, in assay [2] (read-out: % residual activity at 0.50 mM), the remaining activity at 500 µM came to 82 ± 5%. `O=c1c(O)c(-c2ccc(O)cc2O)oc2cc(O)cc(O)c12` [morin, 3,5,7,2′,4′-pentahydroxyflavone]: the figures for the inhibition constant (Ki) in assay [3] and in assay [4] were 63 ± 4 µM and 80 ± 10 µM, respectively. For `O=P(O)(O)OP(=O)(O)O` [PPi], the “% of control activity at 1.0 mM” value in assay [2] (pH 7.5, 250 µM FBP) was determined as 144 ± 10%.

Consider `O=C(O)CCC(=O)C(=O)O` [2-OG], for which, in assay [1], the remaining activity at 5000 µM stood at 69 ± 2%.

The Ki is the equilibrium dissociation constant of an inhibitor or competing ligand from its target. Low values mean tighter binding, high ones weaker binding.
